According to ChEMBL document CHEMBL3507680, “University of Dundee, Gates Library screen for HepG2 cell viability”:

Assay: Human HepG2 cell viability assay in 384 well format
Assay type: toxicity, cell-based
Design: dose 125 nL, time 70.5 hour; concentration not given beside the values
Conditions: HepG2 cells, read-out: Inhibition

Row | SMILES | cytotoxicity at 70.5 h [%]
1 | COc1ncc(CN2C[C@@H]3C[C@@H](O)CN3C[C@@H]2Cc2ccccc2)cn1 | 18.8
2 | CC(C)C(=O)N1CCCC(Cc2ccccn2)C1 (stereo unspecified) | -1.35
3 | Cc1noc(C)c1-c1nc(C2CCCN(CCC(N)=O)C2)ccc1CO (stereo unspecified) | -6.81
4 | CO[C@H]1CN(C(=O)c2cccc(C)n2)CC[C@@]12CCCO2 | -6.22
5 | CN(C)CC1(O)CCN(C(=O)Cc2ccc3ccccc3c2)C1 (stereo unspecified) | -1.7
6 | Cc1nc(C)c(C(=O)N2CCc3nnc(C4CCCN4C)n3CC2)s1 (stereo unspecified) | -3.4
7 | Cc1cccc(Nc2ccc(C3CCN(Cc4ncc[nH]4)CC3)nc2)n1 | 0.422
8 | Cc1cnn(CC(=O)N2CCC(c3ccn4nccc4n3)CC2)c1 | -2.27
9 | CN(CC1(O)CCN(c2ccnc3ccncc23)CC1)C(=O)CCN | -6.66
10 | Cc1n[nH]c(C)c1-c1nccnc1CC1CCNC1 (stereo unspecified) | -2.8
11 | CC(=O)N1CCOC(c2ccnc(N(C)C)n2)C1 (stereo unspecified) | 1.91
12 | Cc1nccn1[C@@H]1CC[C@@H](NC(=O)Cn2c(C)nc3ccccc32)[C@H]1O | 0.7
13 | CN1CCC(Cc2cncc(-c3ccccc3C(=O)O)n2)C1 (stereo unspecified) | -6.47
14 | O=C(Cn1ccnc1)N1C[C@@H]2CC[C@H](Oc3ccc(Cl)cc3)[C@@H]2C1 | 0.299
15 | COc1ccc(CN(Cc2cn(C)nc2C)CC2CCCO2)c(OC)c1 (stereo unspecified) | -2.41
16 | COCCN1C(=O)CO[C@H]2CN(Cc3cccc(OC)c3F)C[C@@H]21 | -4.24
17 | O=C(COc1cccc(F)c1)N1CCCCC1c1ccn2ccnc2n1 (stereo unspecified) | -9.3
18 | O=C(CCc1cccnc1)N1CCCCC1c1ccn2ccnc2n1 (stereo unspecified) | -6.74
19 | Cc1cncc(C(=O)N[C@@H]2CC[C@@H](N3CCOCC3)[C@@H]2O)c1 | -8.5

Row | SMILES | cytotoxicity at 70.5 h [%]
20 | COc1ccc(CN2CC[C@H](NC(C)=O)[C@@H](O)CC2)c(F)c1 | -5.93
21 | CC(=O)N1CCCC1c1cccc(Cc2ccccc2Cl)n1 (stereo unspecified) | 0.0226
22 | NC(=O)C1(CCCc2ccccn2)CCCN(CCO)C1 (stereo unspecified) | -4.87
23 | CN(C)Cc1ccnc(C2CN(Cc3nccs3)CCO2)n1 (stereo unspecified) | 1.69
24 | CC(=O)N1CCCC1c1cccc(Oc2ccccc2F)n1 (stereo unspecified) | -4.13
25 | CN(C)Cc1ccnc(C2CN(Cc3c(F)cccc3F)CCO2)n1 (stereo unspecified) | -6.34
26 | NC(=O)CN1CCCC(c2cncc(Nc3ncccn3)n2)C1 (stereo unspecified) | -6.48
27 | O=C(COc1ccccc1F)N1CCCCC1c1ccn2ccnc2n1 (stereo unspecified) | -11.7
28 | CC(=O)NCC(=O)N1C[C@@H]2CC[C@H](Oc3ccccc3Cl)[C@@H]2C1 | 12.5
29 | CN(Cc1ccc(F)cc1)CC1(O)CCN(C(=O)c2ccn(C)n2)C1 (stereo unspecified) | -6.54
30 | CC(=O)N1CCCC(c2ccnc(Nc3cnccn3)n2)C1 (stereo unspecified) | -7.2
31 | Cc1nc(CCC(N)=O)cc(C2CCNCC2)n1 | 18.8
32 | Fc1ccc(Cc2cccc(C3CCN(C4CCOCC4)CC3)n2)cc1 | 0.432
33 | Cc1noc2nc(C3CCN(Cc4ccccn4)CC3)cc(C(F)F)c12 | -2.48
34 | Oc1nc(N2CCOCC2)nc2c1CCN(Cc1cccc(F)c1)CC2 | -5.57
35 | CC(C)n1ccnc1CN1CCOC(C)(C(=O)N2CCOCC2)C1 (stereo unspecified) | -5.02
36 | NC(=O)C1(CCCc2ccccn2)CCCN(Cc2ccncc2)C1 (stereo unspecified) | -2.02
37 | Oc1nc(N2CCOCC2)nc2c1CCN(Cc1ccc(F)cc1)CC2 | -2.02
38 | NC(=O)C1(CCCc2ccccn2)CCCN(Cc2ncc[nH]2)C1 (stereo unspecified) | 1.81

Row | SMILES | cytotoxicity at 70.5 h [%]
39 | Cc1nc(NC2CCCC2)cc(C2CCN2C(=O)c2ccccn2)n1 (stereo unspecified) | -4.92
40 | O=C(c1ccccc1F)N1CCOC(c2nc(-c3ncccn3)no2)C1 (stereo unspecified) | -2.38
41 | Cc1ccc(C2CCCN(C(=O)c3cnn(C)c3)C2)nc1 (stereo unspecified) | 24.3
42 | CNC(=O)C1(c2cnccn2)CCCN1C(=O)c1ccccc1 (stereo unspecified) | 17.8
43 | O=C(c1cc(C2CCCCN2C(=O)C2CCC2)n[nH]1)N1CCOCC1 (stereo unspecified) | 18.8
44 | CNC(=O)C1(c2cnccn2)CCCN1C(=O)c1cccc(F)c1 (stereo unspecified) | 20.4
45 | O=C(c1cccnc1)N1CCOC(c2ccc(-c3cncnc3)cn2)C1 (stereo unspecified) | -0.513
46 | O[C@@H]1CN(Cc2cccnc2)C[C@H]1Oc1ccccc1 | 0.823
47 | Cc1nn(C)c(C)c1CN1CCCC1c1nccc(CN(C)C)n1 (stereo unspecified) | -0.0769
48 | O=C(c1cncs1)N1CCC(Cc2cnc3[nH]ccc3c2)CC1 | 15.3
49 | Cc1cc(C2CCN(C(=O)c3cnn(C)c3)CC2)ccn1 | -5.33
50 | CC(C)N1CCC(Cc2cncc(-c3cccc(C(=O)O)c3)n2)C1 (stereo unspecified) | -5.63
51 | CNC(=O)c1ccc(C2CN(C(=O)c3cnn(C)c3)CCO2)nc1 (stereo unspecified) | -4.81
52 | Cn1cc(C(=O)N2CCCC(c3cc(O)n(C)n3)C2)cn1 (stereo unspecified) | 7.43
53 | CC(=O)N1CCCCC1c1nc(C)cc(-c2ccccc2C(=O)O)n1 (stereo unspecified) | -1.42
54 | CNC(=O)C1(c2cnccn2)CCCN1C(=O)c1ccccc1F (stereo unspecified) | -3.62
55 | CNc1cccc(C2CCCN(C(=O)c3cnccn3)C2)n1 (stereo unspecified) | -0.4
56 | O=C(c1cnccn1)N1CCC(Cc2cnc3[nH]ccc3c2)CC1 | -2.92
